{
  "source": "patent US20110130466A1",
  "about": "(priority 2009, published 2011)",
  "key": {"PSP patients [1]": {"test_system": "PSP patients", "conditions": "for dysphagia, need for a PEG: PSP patients without PEG at initiation, observation phase; for frequency of falls, MW (mean): mean of documented PSP patients, baseline 23.059", "method": "Eight men and nine women were treated.\n(§1) The following clinical factors were analyzed: • 1. Patients and relatives received a protocol to document the frequency of falls. • 2. 12 of the patients were analyzed using posturographic measurements. • 3. Depression was evaluated using clinical criteria (DSM-IV). • 4. Eye movements were orthoptically evaluated (in some cases an electronystagmogram was performed). • 5. Dysarthria was investigated using the Bogenhausener dysarthria scale (BoDys) (ranges from 4=normal until 0=anarthria). • 6. Dysphagia was clinically documented and the introduction of a percutaneous feeding tube (PEG) was recorded. • 7. Incidence of pneumonia was recorded. • 8. Impulse control disorder and hallucinations were recorded. • 9. Possible side effects were recorded. • 10."}, "[2]": {"test_system": "Bcl-2 and Bcl-xL expression", "conditions": "parallel to downregulation of pro-apoptotic Bad and Bax; Youdim et al. 2003; cited from earlier work"}, "[3]": {"test_system": "apoptotic cell death initiated by mitochondria", "conditions": "cell culture, Youdim et al. 2001; Akao et al. 2002; cited from earlier work"}, "PSP patients [4]": {"test_system": "PSP patients", "conditions": "patient 5, after 6 months of treatment with rasagiline (FIG. 2)", "method": "as §1"}, "patients with PSP": {"test_system": "patients with PSP", "conditions": "1 mg/day", "method": "A clinical trial is performed according to the following guidelines: [table]"}, "[5]": {"test_system": "animal models of closed head trauma", "conditions": "global focal ischemia, MPTP-induced neurotoxicity, ALS transgenic model, 6-OHDA model; cited from earlier work"}, "[6]": {"conditions": "PSP patients, rasagiline 1 mg/day"}},
  "note": "Like-named read-outs stand apart in the source and are kept apart here.",
  "data": [
    {"smiles": "C#CCN[C@@H]1CCc2ccccc21", "note": "[rasagiline, R(+)-N-propargyl-1-aminoindan]", "values": [
      {"measurement": "dysarthria, mean on the BoDys scale", "setting": "PSP patients [1]; 10 patients, during observation time, from a mean of 2.5±0.5, 4=normal, 0=anarthria", "value": "2.7±0.5"},
      {"measurement": "deaths during the observation time", "setting": "PSP patients [1]; 17 PSP patients, patients 9 and 4, both after treatment had ended", "value": "Two patients died"},
      {"measurement": "dysphagia, need for a PEG", "setting": "PSP patients [1]", "value": "none of the other patients required a PEG"},
      {"measurement": "dysphagia, need for a PEG", "setting": "PSP patients [1]; listed as Rasagiline", "value": "effective in improving or slowing progression of dysphagia"},
      {"measurement": "period of treatment in which the reduction of the frequency of falls mainly took place", "setting": "PSP patients [1]; [6]", "value": "≤ 7", "unit": "months"},
      {"measurement": "postural instability / number of falls (in words)", "setting": "PSP patients [1]; [6]", "value": "improvement in postural instability was evident within the first 7 months"},
      {"measurement": "postural instability / number of falls (in words)", "setting": "PSP patients [1]; PSP patients, rasagiline 1 mg/day, listed as Rasagiline", "value": "effective in reducing the number of falls"},
      {"measurement": "frequency of falls, MW (mean)", "setting": "PSP patients [1]; 1 Month of rasagiline 1 mg/day", "value": 19.824, "unit": "falls/week"},
      {"measurement": "frequency of falls, MW (mean)", "setting": "PSP patients [1]; 2 Months of rasagiline 1 mg/day", "value": 20.692, "unit": "falls/week"},
      {"measurement": "frequency of falls, MW (mean)", "setting": "PSP patients [1]; 3 Months of rasagiline 1 mg/day", "value": 20.833, "unit": "falls/week"},
      {"measurement": "frequency of falls, MW (mean)", "setting": "PSP patients [1]; 4 Months of rasagiline 1 mg/day", "value": 20.667, "unit": "falls/week"},
      {"measurement": "frequency of falls, MW (mean)", "setting": "PSP patients [1]; 5 Months of rasagiline 1 mg/day", "value": 20.917, "unit": "falls/week"},
      {"measurement": "frequency of falls, MW (mean)", "setting": "PSP patients [1]; 6 Months of rasagiline 1 mg/day", "value": 19.923, "unit": "falls/week"},
      {"measurement": "frequency of falls, MW (mean)", "setting": "PSP patients [1]; 7 Months of rasagiline 1 mg/day", "value": 21.917, "unit": "falls/week"},
      {"measurement": "frequency of falls, MW (mean)", "setting": "PSP patients [1]; 8 Months of rasagiline 1 mg/day", "value": 23.5, "unit": "falls/week"},
      {"measurement": "frequency of falls, MW (mean)", "setting": "PSP patients [1]; 9 Months of rasagiline 1 mg/day", "value": 22.818, "unit": "falls/week"},
      {"measurement": "frequency of falls, MW (mean)", "setting": "PSP patients [1]; 10 Months of rasagiline 1 mg/day", "value": 25.1, "unit": "falls/week"},
      {"measurement": "frequency of falls, MW (mean)", "setting": "PSP patients [1]; 11 Months of rasagiline 1 mg/day", "value": 25.889, "unit": "falls/week"},
      {"measurement": "frequency of falls, MW (mean)", "setting": "PSP patients [1]; 12 Months of rasagiline 1 mg/day", "value": 24.6, "unit": "falls/week"},
      {"measurement": "impulse control disorder", "setting": "PSP patients [1]; one patient with impulse control disorder at initiation", "value": "not influenced by treatment with rasagiline"},
      {"measurement": "treating physician's assessment of deaths and intracranial haemorrhage after fall", "setting": "PSP patients [1]; patients 9, 4 and 12", "value": "not related to rasagiline"},
      {"measurement": "effect on eye movements", "setting": "PSP patients [1]; rasagiline 1 mg/day", "value": "No effect"},
      {"measurement": "depression during treatment", "setting": "PSP patients [1]; rasagiline 1 mg/day, 12 months observation, listed as Rasagiline", "value": "effective in reducing or eliminating depression"},
      {"measurement": "reversibility of side effects after termination", "setting": "PSP patients [1]; three patients with side effects", "value": "completely reversible"},
      {"measurement": "expression of anti-apoptotic Bcl-2 and Bcl-xL", "setting": "[2]", "value": "induces increase"},
      {"measurement": "suppression of apoptotic cell death", "setting": "[3]", "value": "potently suppresses apoptotic cell death"},
      {"measurement": "posturographic measurement, before vs after treatment", "setting": "PSP patients [4]", "value": "shows an improvement"},
      {"measurement": "reduction of the reported deterioration (PSPRS)", "setting": "patients with PSP; 1 year, vs reported mean yearly increase of 9.7", "value": 33, "unit": "%"},
      {"measurement": "safety, gait disturbances and postural stability", "setting": "patients with PSP; posturographic measurement", "value": "safe and effective in reducing gait disturbances and in enhancing postural stability"},
      {"measurement": "neuroprotection", "setting": "[5]", "value": "Neuroprotection by rasagiline was achieved"}
    ]}
  ]
}
